Measurements as given in PMC7601999 (Journal of the American Chemical Society, 2020).
One block for each compound: values may come before it. Residues, ends and D or L forms follow the SMILES beside them.

Columns and labels:
NOD2 LRR [1] = target: T1, NOD2 LRR (Homo sapiens, UniProt Q9HC29); conditions: read-out: Surface KD, NOD2, SPR, previously reported surface KD; cited from earlier work
NLRP1 LRR = target: T2, NLRP1 LRR (Homo sapiens, UniProt Q9C000); assay: SPR assay, NLRP1 LRR binding to surface-tethered PG derivatives; conditions: for Decrease in affinity compared to intact MDP (1): NLRP1 LRR, SPR surface KD; for Binding to non-PG derived compound tethered to SPR surface: NLRP1, specificity control (Figure S8)
T2 sequence (Q9C000 791-990): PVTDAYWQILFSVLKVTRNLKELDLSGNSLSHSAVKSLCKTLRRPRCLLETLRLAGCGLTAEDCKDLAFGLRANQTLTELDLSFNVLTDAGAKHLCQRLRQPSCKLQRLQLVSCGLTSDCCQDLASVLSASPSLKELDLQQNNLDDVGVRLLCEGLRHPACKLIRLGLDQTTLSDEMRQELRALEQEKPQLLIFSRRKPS

[2] = system: NOD2 R877 to alanine mutant; conditions: R877A versus wild-type NOD2; cited from earlier work
NOD2 LRR [3] = target: T1, NOD2 LRR; assay: SPR assay, NOD2 LRR binding to surface-tethered PG derivatives; conditions: specificity control (Figure S8)

T1 sequence (Q9HC29 765-1040 limits assumed): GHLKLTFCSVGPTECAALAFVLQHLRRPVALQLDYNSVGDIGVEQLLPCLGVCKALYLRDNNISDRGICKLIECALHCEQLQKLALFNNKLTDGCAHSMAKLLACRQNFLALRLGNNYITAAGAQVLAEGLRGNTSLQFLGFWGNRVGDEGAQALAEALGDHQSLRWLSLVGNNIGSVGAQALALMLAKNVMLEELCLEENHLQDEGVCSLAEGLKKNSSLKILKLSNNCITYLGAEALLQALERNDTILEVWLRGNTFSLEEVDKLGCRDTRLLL

Compound: 1-amino MDP [Compound 6]
Kd (NOD2 LRR [1]): 700 ± 100 nM

Compound: 6 -amino GlcNAc [Compound 2]
Kd (NOD2 LRR [1]): 354 ± 40 nM
Decrease in affinity compared to intact MDP (1) (NLRP1 LRR): 2 fold

Compound: 6-amino MDP [Compound 1]
Kd (NOD2 LRR [1]): 213 ± 24 nM

Compound: CC(=O)N[C@H]1C(O)O[C@H](CO)[C@@H](O)[C@@H]1O[C@H](C)C(=O)N[C@@H](C)C(=O)N[C@H](CCC(=O)O)C(N)=O (mixture of isomers) [MDP, muramyl dipeptide]
Decrease in affinity of NOD2 for MDP on mutation of R877 to alanine [2]: 4 fold

The next lines start with results.

Decrease in affinity compared to intact MDP (1) (NLRP1 LRR): 2 fold
Compound: C[C@H](N)C(=O)N[C@H](CCC(=O)O)C(N)=O [Compound 3, L-ala D-iso dipeptide] (HELM PEPTIDE1{A.[dE].[am]}$$$$V2.0)
Kd (NOD2 LRR [1]): 428 ± 49 nM

Binding to non-PG derived compound tethered to SPR surface (NOD2 LRR [3]): did not exhibit binding
Binding to non-PG derived compound tethered to SPR surface (NLRP1 LRR): did not exhibit binding
Compound: C[C@H](N)C(=O)N[C@@H](C)C(=O)N[C@@H](C)C(=O)O [L-alanine tripeptide, reference compound]

Binding to non-PG derived compound tethered to SPR surface (NOD2 LRR [3]): did not exhibit binding
Binding to non-PG derived compound tethered to SPR surface (NLRP1 LRR): did not exhibit binding
Compound: N[C@H]1C(O)O[C@H](CO)[C@H](O)[C@@H]1O (some centres unmarked) [galactosamine, reference compound]
